Measured values from patent publication US20100226931A1, “Compounds for immunopotentiation” (priority 2004, published 2010).

In the case of `Clc1ccc(Nc2nnc(Cc3ccncc3)c3ncccc23)cc1`, the melting point is reported as 220 to 222 °C.
